In patent publication US12551577B2, “7-ethyl-10-hydroxycamptothecin drug precursor with fluorescence activity, and preparation method and use thereof” (SOOCHOW UNIVERSITY, priority 2021, dated 2026) one finds solubility in chloroform data, which are given here for one compound.

The data set in a line: Solubility in chloroform by weight loss method. In kind it is physicochemical. Conditions: 2 mg in 300 μL chloroform. As to the method: The weights of the two centrifuge tubes were recorded on an analytical balance, respectively. […] 300 μL of chloroform was added to the centrifuge tube, shaken, and centrifuged. […] The solubility of different compounds in chloroform was estimated by the weight loss method (where the specific operation includes pipetting the solution, and lyophilizing the remaining solid and weighing).

On to `CCc1c2c(nc3ccc(O)cc13)-c1cc3c(c(=O)n1C2)COC(=O)[C@]3(O)CC` [SN38, 7-Ethyl-10-hydroxycamptothecin], for which the solubility in chloroform entry is “hardly soluble”.
